Holding throughout (format): biochemical
The target in assay [1] is Human plasma kallikrein (Homo sapiens (Human), UniProt P03952). As to the kind of experiment: Determination of the IC50 for plasma kallikrein. To be noted: 25° C., fluorogenic substrate H-DPro-Phe-Arg-AFC; read-out: IC50 (human PKaI). The procedure:
Determination of the IC50 for Plasma Kallikrein
Human plasma kallikrein (Protogen) was incubated at 25° C. with the fluorogenic substrate H-DPro-Phe-Arg-AFC and various concentrations of the test compound. Residual enzyme activity (initial rate of reaction) was determined by measuring the change in […] at 410 nm and the IC50 value for the test compound was determined.

Assay [2] deals with Human FXIa (Homo sapiens (Human), UniProt P03951). Briefly: Determination of the % inhibition for FXIa. To be noted: 40 μM test compound, 25° C., substrate Z-Gly-Pro-Arg-AFC. The method, then: Determination of the % Inhibition for FXIa
Human FXIa (Enzyme Research Laboratories) was incubated at 25° C. with the fluorogenic substrate Z-Gly-Pro-Arg-AFC and 40 μM of the test compound. Residual enzyme activity (initial rate of reaction) was determined by measuring the change in […].

The target in assay [3] is Human KLK1 (Homo sapiens (Human), UniProt P06870). Briefly: Determination of the IC50 for KLK1. To be noted: 25° C., fluorogenic substrate H-DVal-Leu-Arg-AFC. The procedure: Determination of the IC50 for KLK1
Human KLK1 (Callbiochem) was incubated at 25° C. with the fluorogenic substrate H-DVal-Leu-Arg-AFC and various concentrations of the test compound. Residual enzyme activity (initial rate of reaction) was determined by measuring the change in […] at 410 nm and the IC50 value for the test compound was determined.

pIC50: −log10 of the molar value.

Nine molecules from patent publication US10364238B2, “N-((het) arylmethyl)-heteroaryl-carboxamides compounds as plasma kallikrein inhibitors” (KALVISTA PHARMACEUTICALS LIMITED, priority 2014, dated 2019) can be followed below.

What is called pIC50 is −log10 of the IC50, conventionally taken in molar units. One may read the inhibition as how much of the control response was suppressed.

Sequence of Human KLK1 (P06870 25-262): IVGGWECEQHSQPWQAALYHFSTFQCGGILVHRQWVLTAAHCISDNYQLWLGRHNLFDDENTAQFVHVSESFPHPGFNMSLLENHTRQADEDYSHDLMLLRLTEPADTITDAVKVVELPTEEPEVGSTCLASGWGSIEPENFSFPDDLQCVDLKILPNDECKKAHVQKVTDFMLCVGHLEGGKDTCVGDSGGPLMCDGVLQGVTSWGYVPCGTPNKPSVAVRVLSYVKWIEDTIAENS
Sequence of Human FXIa (P03951 388-625): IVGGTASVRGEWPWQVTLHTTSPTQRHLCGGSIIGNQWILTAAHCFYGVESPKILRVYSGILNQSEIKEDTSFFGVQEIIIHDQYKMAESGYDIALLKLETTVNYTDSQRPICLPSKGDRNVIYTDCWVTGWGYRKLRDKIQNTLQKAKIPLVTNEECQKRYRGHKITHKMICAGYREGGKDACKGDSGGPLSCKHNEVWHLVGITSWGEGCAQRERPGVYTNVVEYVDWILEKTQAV
Sequence of Human FXIa (P03951 19-387 partner): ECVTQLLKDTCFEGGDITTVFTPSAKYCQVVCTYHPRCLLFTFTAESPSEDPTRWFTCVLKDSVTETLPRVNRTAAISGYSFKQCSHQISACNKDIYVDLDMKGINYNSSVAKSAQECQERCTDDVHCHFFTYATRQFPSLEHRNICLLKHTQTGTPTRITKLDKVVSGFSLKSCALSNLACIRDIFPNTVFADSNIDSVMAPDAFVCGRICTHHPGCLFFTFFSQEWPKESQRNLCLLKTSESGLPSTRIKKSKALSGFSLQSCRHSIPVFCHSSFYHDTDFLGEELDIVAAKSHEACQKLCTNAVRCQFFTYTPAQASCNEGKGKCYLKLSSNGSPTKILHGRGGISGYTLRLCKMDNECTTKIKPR
Sequence of Human plasma kallikrein (P03952 391-638): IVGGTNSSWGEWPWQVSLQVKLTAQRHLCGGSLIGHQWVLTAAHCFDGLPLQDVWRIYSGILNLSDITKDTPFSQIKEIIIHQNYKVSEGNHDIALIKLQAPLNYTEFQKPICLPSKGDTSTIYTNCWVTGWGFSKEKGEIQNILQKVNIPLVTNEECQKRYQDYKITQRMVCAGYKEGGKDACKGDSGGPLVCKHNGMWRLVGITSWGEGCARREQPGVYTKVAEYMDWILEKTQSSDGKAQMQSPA
Sequence of Human plasma kallikrein (P03952 20-390 partner): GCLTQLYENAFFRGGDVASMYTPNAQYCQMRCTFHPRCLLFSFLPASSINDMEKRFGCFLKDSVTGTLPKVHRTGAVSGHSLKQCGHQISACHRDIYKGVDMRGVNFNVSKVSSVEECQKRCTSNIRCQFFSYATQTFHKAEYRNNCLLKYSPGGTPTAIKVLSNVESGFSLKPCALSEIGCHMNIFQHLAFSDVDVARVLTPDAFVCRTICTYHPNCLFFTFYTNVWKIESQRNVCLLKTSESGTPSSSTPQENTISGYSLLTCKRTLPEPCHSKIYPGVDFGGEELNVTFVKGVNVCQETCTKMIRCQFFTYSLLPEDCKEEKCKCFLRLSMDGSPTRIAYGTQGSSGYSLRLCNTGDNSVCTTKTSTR

On to `COCc1nn(Cc2ccc(Cn3ccccc3=O)cc2)cc1C(=O)NCc1cc(OC)ccc1C(F)F` [Example 81, N-{[2-(difluoromethyl)-5-methoxyphenyl]methyl}-3-(methoxymethyl)-1-({4-[(2-oxopyridin-1-yl)methyl]phenyl}methyl)pyrazole-4-carboxamide], for which the negative logarithm of the IC50 (pIC50) in assay [1] is 8.64; in assay [3], < 4.40. Moreover, in assay [2], the inhibition at 40 µM worked out at 1%.
For `Nc1nn(Cc2ccc(Cn3ccccc3=O)cc2)cc1C(=O)NCc1c(F)cccc1C(F)(F)F` [Example 70, 3-amino-N-{[2-fluoro-6-(trifluoromethyl)phenyl]methyl}-1-({4-[(2-oxopyridin-1-yl)methyl]phenyl}methyl)pyrazole-4-carboxamide], the pIC50 is 7.57 in assay [1] and < 5.00 in assay [3]. In assay [2], this molecule displayed an inhibition at 40 µM of 6%.
Turning to `COCc1nn(Cc2ccc(Cn3ccccc3=O)cc2)cc1C(=O)NCc1cccc(OC)c1` [Example 133, 3-(methoxymethyl)-N-[(3-methoxyphenyl)methyl]-1-({4-[(2-oxopyridin-1-yl)methyl]phenyl}methyl)pyrazole-4-carboxamide], the pIC50 in assay [1] was 7.04; in assay [3], < 5.00. In addition, in assay [2], testing at 40 µM gave an inhibition of 1%.
For `COCc1nn(Cc2ccc(Cn3ccc(C)cc3=O)cc2)cc1C(=O)NCc1c(F)ccc(OC)c1F` [Example 106, N-[(2,6-difluoro-3-methoxyphenyl)methyl]-3-(methoxymethyl)-1-({4-[(4-methyl-2-oxopyridin-1-yl)methyl]phenyl}methyl)pyrazole-4-carboxamide], the results for the negative logarithm of the IC50 (pIC50) in assay [1] and in assay [3] were 6.85 and < 5.00, respectively. Further, the inhibition at 40 µM in assay [2] is 2%.
For `Nc1nn(Cc2ccc(Cn3ccccc3=O)cc2)cc1C(=O)NCC1CNc2ccc(Cl)cc2O1` (stereo not drawn) [Example 140, 3-amino-N-[(7-chloro-3,4-dihydro-2H-1,4-benzoxazin-2-yl)methyl]-1-({4-[(2-oxopyridin-1-yl)methyl]phenyl}methyl)pyrazole-4-carboxamide], in that order: 7.97, < 4.40 and 9%.
For `COc1cccc(CNC(=O)c2cn(Cc3ccc(Cn4ccccc4=O)cc3)nc2NC(C)=O)c1F` [Example 71, 3-acetamido-N-[(2-fluoro-3-methoxyphenyl)methyl]-1-({4-[(2-oxopyridin-1-yl)methyl]phenyl}methyl)pyrazole-4-carboxamide], in that order: 6.52, < 5.00 and 0%.
In the case of `COCc1nn(Cc2ccc(Cn3ccccc3=O)cc2)cc1C(=O)NCc1ccccc1F` [Example 62, N-[(2-fluorophenyl)methyl]-3-(methoxymethyl)-1-({4-[(2-oxopyridin-1-yl)methyl]phenyl}methyl)pyrazole-4-carboxamide], the pIC50 was 6.24 in assay [1] and < 5.00 in assay [3]. This molecule also had an inhibition at 40 µM in assay [2] of 0%.
On to `Nc1nn(Cc2ccc(Cn3ccccc3=O)cc2)cc1C(=O)NCc1cccc(O)c1F` [Example 130, 3-amino-N-[(2-fluoro-3-hydroxyphenyl)methyl]-1-({4-[(2-oxopyridin-1-yl)methyl]phenyl}methyl)pyrazole-4-carboxamide], for which the pIC50 was 6.76 in assay [1] and < 4.40 in assay [3]. Besides, in assay [2], 40 µM produced 0% inhibition.
With `COCc1nn(Cc2ccc(Cn3ccccc3=O)cc2)cc1C(=O)NCc1cccc(OC)c1C(F)F` [Example 69, N-{[2-(difluoromethyl)-3-methoxyphenyl]methyl}-3-(methoxymethyl)-1-({4-[(2-oxopyridin-1-yl)methyl]phenyl}methyl)pyrazole-4-carboxamide], the pIC50 in assay [1] was 7.77; in assay [3] it was < 4.40. In assay [2], this molecule yielded an inhibition at 40 µM of 0%.
